# Measured values from patent US6677310B1, “Ring-expanded nucleosides and nucleotides” (Nabi, priority 1999, dated 2004).
# How the values were obtained:
# Format in all cases: cell-based, human
# [1] = tested on: CCRF-CEM; experiment: SRB anti-cancer assay, Leukemia; conditions: 48 h
# [2] = tested on: RPMI-8226; experiment: SRB anti-cancer assay, Leukemia; conditions: RPMI-8226 (Leukemia), 48 h
# [3] = tested on: SR; experiment: SRB anti-cancer assay, Leukemia; conditions: 48 h
# [4] = tested on: HOP-62; conditions: HOP-62 (Non-Small Cell Lung Cancer), 48 h
# [5] = tested on: NCI-H23; conditions: NCI-H23 (Non-Small Cell Lung Cancer), 48 h
# [6] = tested on: NCI-H460; conditions: NCI-H460 (Non-Small Cell Lung Cancer), 48 h
# [7] = tested on: COLO 205; experiment: SRB anti-cancer assay, Colon Cancer; conditions: COLO 205 (Colon Cancer), 48 h
# [8] = tested on: HCC-2998; experiment: SRB anti-cancer assay, Colon Cancer; conditions: HCC-2998 (Colon Cancer), 48 h
# [9] = tested on: HCT-116; experiment: SRB anti-cancer assay, Colon Cancer; conditions: HCT-116 (Colon Cancer), 48 h
# [10] = tested on: HCT-15; experiment: SRB anti-cancer assay, Colon Cancer; conditions: HCT-15 (Colon Cancer), 48 h
# [11] = tested on: KM12; experiment: SRB anti-cancer assay, Colon Cancer; conditions: 48 h
# [12] = tested on: SW-620; experiment: SRB anti-cancer assay, Colon Cancer; conditions: SW-620 (Colon Cancer), 48 h
# [13] = tested on: SF-268; experiment: SRB anti-cancer assay, CNS Cancer; conditions: SF-268 (CNS Cancer), 48 h
# [14] = tested on: SF-295; experiment: SRB anti-cancer assay, CNS Cancer; conditions: SF-295 (CNS Cancer), 48 h
# [15] = tested on: MALME-3M; experiment: SRB anti-cancer assay, Melanoma; conditions: MALME-3M (Melanoma), 48 h
# [16] = tested on: M14; experiment: SRB anti-cancer assay, Melanoma; conditions: 48 h
# [17] = tested on: SK-MEL-28; experiment: SRB anti-cancer assay, Melanoma; conditions: SK-MEL-28 (Melanoma), 48 h
# [18] = tested on: UACC-62; experiment: SRB anti-cancer assay, Melanoma; conditions: UACC-62 (Melanoma), 48 h
# [19] = tested on: OVCAR-3; experiment: SRB anti-cancer assay, Ovarian Cancer; conditions: OVCAR-3 (Ovarian Cancer), 48 h
# [20] = tested on: OVCAR-8; experiment: SRB anti-cancer assay, Ovarian Cancer; conditions: OVCAR-8 (Ovarian Cancer), 48 h
# [21] = tested on: 786-0; experiment: SRB anti-cancer assay, Renal Cancer; conditions: 786-0 (Renal Cancer), 48 h
# [22] = tested on: CAKI-1; experiment: SRB anti-cancer assay, Renal Cancer; conditions: CAKI-1 (Renal Cancer), 48 h
# [23] = tested on: SN12C; experiment: SRB anti-cancer assay, Renal Cancer; conditions: 48 h
# [24] = tested on: UO-31; experiment: SRB anti-cancer assay, Renal Cancer; conditions: UO-31 (Renal Cancer), 48 h
# [25] = tested on: NCI/ADR-RES; experiment: SRB anti-cancer assay, Breast Cancer; conditions: 48 h
# [26] = tested on: MDA-MB- 231/ATCC; experiment: SRB anti-cancer assay, Breast Cancer; conditions: MDA-MB- 231/ATCC (Breast Cancer), 48 h
# [27] = tested on: MDA-MB-435; experiment: SRB anti-cancer assay, Breast Cancer; conditions: MDA-MB-435 (Breast Cancer), 48 h
# [28] = tested on: MDA-N; experiment: SRB anti-cancer assay, Breast Cancer; conditions: 48 h
# [29] = tested on: T-47D; experiment: SRB anti-cancer assay, Breast Cancer; conditions: T-47D (Breast Cancer), 48 h
# [30] = read-out: LC50 (the source's name)
smiles,measurement,setting,value
"N=c1nc(N)c2ncn([C@@H]3O[C@H](COC(=O)c4ccccc4)[C@@H](OC(=O)c4ccccc4)[C@H]3OC(=O)c3ccccc3)c2c(N)n1 [4,8-Diamino-6H-6-imino-1(2′,3′,5′-tri-O-benzoyl-β-D-ribofuranosyl)imidazo[4,5-e][1,3]diazepine]",GI50,[1],0.125 µM
same,TGI,[1],1.84 µM
same,CC50,[1]; [30],6.4 µM
same,GI50,[2],2.53 µM
same,TGI,[2],7.42 µM
same,CC50,[2]; [30],> 100 µM
same,GI50,[3],4.27 µM
same,LC50 (concentration killing 50% of cells),[3],> 100 µM
same,TGI,[3],>100 µM
same,GI50,[4],7.64 µM
same,LC50 (concentration for 50% net cell kill),[4],55.6 µM
same,TGI,[4],22.7 µM
same,GI50,[5],12.3 µM
same,TGI,[5],27.7 µM
same,CC50,[5]; [30],62.3 µM
same,GI50,[6],2.52 µM
same,TGI,[6],8.42 µM
same,CC50,[6]; [30],34.7 µM
same,GI50,[7],1.49 µM
same,LC50,[7],5.55 µM
same,TGI,[7],2.87 µM
same,GI50,[8],3.18 µM
same,TGI,[8],6.41 µM
same,CC50,[8]; [30],19.2 µM
same,GI50,[9],3.76 µM
same,TGI,[9],21.2 µM
same,CC50,[9]; [30],87.5 µM
same,GI50,[10],5.77 µM
same,TGI,[10],19.5 µM
same,CC50,[10]; [30],50.8 µM
same,GI50,[11],5.5 µM
same,LC50,[11],53.6 µM
same,TGI,[11],19.4 µM
same,GI50,[12],5.14 µM
same,TGI,[12],29.5 µM
same,CC50,[12]; [30],> 100 µM
same,GI50,[13],13.2 µM
same,TGI,[13],31.3 µM
same,CC50,[13]; [30],74.2 µM
same,GI50,[14],6.03 µM
same,TGI,[14],19.6 µM
same,CC50,[14]; [30],49.2 µM
same,GI50,[15],3.04 µM
same,LC50,[15],33.8 µM
same,TGI,[15],8.07 µM
same,GI50,[16],1.91 µM
same,TGI,[16],3.54 µM
same,CC50,[16]; [30],6.54 µM
same,GI50,[17],10.4 µM
same,LC50,[17],65.8 µM
same,TGI,[17],26.2 µM
same,GI50,[18],15.6 µM
same,TGI,[18],33.4 µM
same,CC50,[18]; [30],71.5 µM
same,GI50,[19],10.9 µM
same,TGI,[19],23 µM
same,CC50,[19]; [30],48.7 µM
same,GI50,[20],4.34 µM
same,LC50 (50% lethal concentration),[20],> 100 µM
same,TGI,[20],22.5 µM
same,GI50,[21],15.5 µM
same,TGI,[21],35.6 µM
same,CC50,[21]; [30],81.5 µM
same,GI50,[22],12.1 µM
same,TGI,[22],26.8 µM
same,CC50,[22]; [30],59.4 µM
same,GI50,[23],6.44 µM
same,TGI,[23],39.4 µM
same,CC50,[23]; [30],> 100 µM
same,GI50,[24],6.4 µM
same,TGI,[24],20.6 µM
same,CC50,[24]; [30],51.1 µM
same,GI50,[25],13.9 µM
same,TGI,[25],31.5 µM
same,CC50,[25]; [30],71.4 µM
same,GI50,[26],5 µM
same,TGI,[26],22 µM
same,CC50,[26]; [30],61.6 µM
same,GI50,[27],14.9 µM
same,TGI,[27],29.8 µM
same,CC50,[27]; [30],59.8 µM
same,GI50,[28],5.88 µM
same,TGI,[28],21.7 µM
same,CC50,[28]; [30],58.6 µM
same,GI50,[29],5.14 µM
same,TGI,[29],18.9 µM
same,CC50,[29]; [30],48.8 µM
